Patent EP2057185B1, “POLYMYXIN DERIVATIVES AND USES THEREOF” (Northern Antibiotics Oy, priority 2006, dated 2008)
Bridge positions count the residues as written; N and C are the ends. Square brackets hold non-standard residues; d marks the D form. Peptide text beside a SMILES is read from it. Dab = NCC[C@H](N)C(=O)O; Abu = CC[C@H](N)C(=O)O

What was measured:
E. coli IH3080 [1] = assay: Growth inhibition around wells on LB agar plates; format: cell-based, Escherichia coli; conditions: 18 h at 37°C; for Antibacterial activity at 4 µg: growth inhibition area around a well containing 4 µg of compound; for Antibacterial activity at 10 µg: growth inhibition area around a well containing 10 µg of compound
Experimental: Peptides synthesized in Example 1, all carrying at least two (2) but not more than three (3) positive charges, were studied for their ability to inhibit the growth of E. coli. This was tested employing LB agar (LB Agar Lennox, Difco, BD, Sparks, MD, U.S.A) plates. The indicator organism E. coli IH3080 (K1:O18) was an encapsulated strain originally isolated from a neonate suffering from meningitis (Vaara et al. 1984) and obtained from National Public Health Institute, Helsinki, Finland.
(§1) From an overnight-grown culture of IH3080 on LB agar, a suspension of approx. 10^8 cells/ml was prepared in 0.9% NaCl. Aliquots of this suspension were then pipetted on the agar plates and the plates were gently shaken to spread the suspension evenly on the entire surface of the plate. Thereafter, the unabsorbed part of the suspension was removed by using a Pasteur pipette. After the surface had dried, small wells (diameter, 2 mm) were drilled on the plates (five wells per plate) by using a sterile sharp-edged narrow metal tube, single-use pipette tip, and vacuum suction. […] Controls included 0.9% NaCl solution without the compound to be tested. The plates were then incubated for 18 h at 37°C whereafter the diameters of growth inhibition zones around each well were measured; the diameter of the well itself was […]. Finally, the diameters were converted to surface areas of growth inhibition (in square mm).

E. coli IH3080 [2] = assay: Growth inhibition around wells on LB plates containing rifampin (sensitization); format: cell-based, Escherichia coli; conditions: well containing 4 µg of compound; for Antibacterial activity in the presence of rifampin concn (µg/ml) of 0: plates with no rifampin; for Antibacterial activity in the presence of rifampin concn (µg/ml) of 0.1: rifampin 0.1 µg/ml; for Antibacterial activity in the presence of rifampin concn (µg/ml) of 1.0: rifampin 1.0 µg/ml
Experimental: as §1, with “mm). […] Louis, MO, U.S.A).” for “mm).”

E. coli ATCC25922 = assay: MIC by E-strips on Mueller-Hinton agar with or without NAB7061 (4 µg/ml); format: cell-based, Escherichia coli; conditions: ratio of the MIC of the antibiotic in the absence of NAB 7061 to that in the presence of 4 µg/ml of NAB 7061; E. coli ATCC 25922
Experimental: (§2) MICs were determined by using E-strips (Biodisk Ltd., Solna, Sweden) according to the manufacturer's instructions.
(§3) The strains originated from ATCC (11 strains), CCUG (11 strains), and NCTC (The National Collection of Type Cultures, Colindale, U.K.; 2 strains). Eight strains (the F-strains) were purchased from Mobidiag Ltd., Helsinki, Finland.

E. coli IH3080 [3] = assay: as above; format: cell-based, Escherichia coli; conditions: ratio of the MIC of the antibiotic in the absence of NAB 7061 to that in the presence of 4 µg/ml of NAB 7061; E. coli IH 3080
Experimental: as §2, §3

K. pneumoniae ATCC13883 = assay: as above; format: cell-based, Klebsiella pneumoniae; conditions: ratio of the MIC of the antibiotic in the absence of NAB 7061 to that in the presence of 4 µg/ml of NAB 7061; K. pneum. ATCC 13883
Experimental: as §2, §3

E. cloacae ATCC23355 = assay: as above; format: cell-based, Enterobacter cloacae; conditions: ratio of the MIC of the antibiotic in the absence of NAB 7061 to that in the presence of 4 µg/ml of NAB 7061; E. cloacae ATCC 23355
Experimental: as §2, §3

[4] = tested on: E. coli (ATCC25922 and IH3080), K. pneumoniae ATCC13883, and E. cloacae ATCC23355; assay: E-strip MIC, summary over the tested strains of Example 7; format: cell-based; conditions: range over the tested strains; NAB7061 4 µg/ml
Experimental: as §2

Ac. baumannii F263 = assay: MIC by E-strips on Mueller-Hinton agar with or without NAB7061 (4 µg/ml); format: cell-based, Acinetobacter baumannii; conditions: A. baumannii F263; NAB 7061 4 µg/ml
Experimental: as §2, §3

Ac. baumannii F264 = assay: as above; format: cell-based, Acinetobacter baumannii; conditions: A. baumannii F264; NAB 7061 4 µg/ml
Experimental: as §2, §3

| Compound | Sensitization factor (E. coli ATCC25922) | Sensitization factor (E. coli IH3080 [3]) | Sensitization factor (K. pneumoniae ATCC13883) | Sensitization factor (E. cloacae ATCC23355) | also measured |
| --- | --- | --- | --- | --- | --- |
| CC[C@H](NC(=O)[C@@H](NC(=O)[C@@H](N)CC)[C@@H](C)O)C(=O)N[C@H]1CCNC(=O)[C@H]([C@@H](C)O)NC(=O)[C@H](CCN)NC(=O)[C@H](CCN)NC(=O)[C@H](CC(C)C)NC(=O)[C@@H](Cc2ccccc2)NC(=O)[C@H](CCN)NC1=O [NAB 705] (H-[Abu]T[Abu][Dab][Dab][dF]L[Dab][Dab]T; lactam 4-C) | – | – | – | – | Antibacterial activity at 4 µg (E. coli IH3080 [1]): 0 square millimeters; Antibacterial activity at 10 µg (E. coli IH3080 [1]): 0 square millimeters; Antibacterial activity in the presence of rifampin concn (µg/ml) of 0 (E. coli IH3080 [2]): 0 square millimeters; Antibacterial activity in the presence of rifampin concn (µg/ml) of 0.1 (E. coli IH3080 [2]): 0 square millimeters; Antibacterial activity in the presence of rifampin concn (µg/ml) of 1.0 (E. coli IH3080 [2]): 5 square millimeters |
| CC(C)(O/N=C(\C(=O)N[C@@H]1C(=O)N2C(C(=O)[O-])=C(C[n+]3ccccc3)CS[C@H]12)c1csc(N)n1)C(=O)O [ceftazidime] | < 2 | – | – | – | – |
| CO[C@H]1/C=C/O[C@@]2(C)Oc3c(C)c(O)c4c(O)c(c(/C=N/N5CCN(C)CC5)c(O)c4c3C2=O)NC(=O)/C(C)=C\C=C\[C@H](C)[C@H](O)[C@@H](C)[C@@H](O)[C@@H](C)[C@H](OC(C)=O)[C@@H]1C [Rifampin, rifampin] | 250 - 750 | 170 - 350 | 250 - 500 | 750 - 1500 | – |
| NC[C@H]1O[C@H](O[C@H]2[C@H](O)[C@@H](O[C@H]3O[C@H](CO)[C@@H](O)[C@H](N)[C@H]3O)[C@H](N)C[C@@H]2N)[C@H](N)C[C@@H]1O [tobramycin] | < 2 | – | – | – | – |
| CN[C@H](CC(C)C)C(=O)N[C@H]1C(=O)N[C@@H](CC(N)=O)C(=O)N[C@H]2C(=O)N[C@H]3C(=O)N[C@H](C(=O)N[C@H](C(=O)O)c4cc(O)cc(O)c4-c4cc3ccc4O)[C@H](O)c3ccc(c(Cl)c3)Oc3cc2cc(c3O[C@@H]2O[C@H](CO)[C@@H](O)[C@H](O)[C@H]2O[C@H]2C[C@](C)(N)[C@H](O)[C@H](C)O2)Oc2ccc(cc2Cl)[C@H]1O [Vancomycin, vancomycin] | 5 | 2.5 | 1 | 32 | – |
| CC(=O)NC[C@H]1CN(c2ccc(N3CCOCC3)c(F)c2)C(=O)O1 [Linezolid, linezolid] | > 11 | > 8 | > 4 | > 8 | – |
| CCN1CCN(C(=O)N[C@@H](C(=O)N[C@@H]2C(=O)N3[C@@H]2SC(C)(C)[C@@H]3C(=O)O)c2ccccc2)C(=O)C1=O [piperacillin] | < 2 | – | – | – | – |
| COc1cc(Cc2cnc(N)nc2N)cc(OC)c1OC [Trimetoprim] | – | 3 | 2 | 3 | – |
| C/C(=C\C(=O)OCCCCCCCCC(=O)O)C[C@@H]1OC[C@H](C[C@@H]2O[C@H]2[C@@H](C)[C@H](C)O)[C@@H](O)[C@H]1O [Mupirocin, mupirocin] | 64 - 170 | 64 - 85 | 24 - 32 | 250 - 512 | Sensitization factor [4]: 24-512 |
| C[C@H]1COc2c(N3CCN(C)CC3)c(F)cc3c(=O)c(C(=O)O)cn1c23 [levofloxacin] | < 2 | – | – | – | – |
| CC[C@H]1OC(=O)[C@H](C)[C@@H](O[C@H]2C[C@@](C)(OC)[C@@H](O)[C@H](C)O2)[C@H](C)[C@@H](O[C@@H]2O[C@H](C)C[C@H](N(C)C)[C@H]2O)[C@](C)(O)C[C@@H](C)CN(C)[C@H](C)[C@@H](O)[C@]1(C)O [Azithromycin, azithromycin] | 24 - 64 | 31 - 94 | 31 - 43 | 32 | Sensitization factor [4]: 31-94 |
| CO/N=C(\C(=O)N[C@@H]1C(=O)N2C(C(=O)O)=C(COC(C)=O)CS[C@H]12)c1csc(N)n1 [cefotaxime] | < 2 | – | – | – | – |
| CC(=O)O[C@H]1C[C@@]2(C)[C@@H](C[C@@H](O)[C@H]3[C@@]4(C)CC[C@@H](O)[C@@H](C)[C@@H]4CC[C@@]32C)/C1=C(\CCC=C(C)C)C(=O)O [Fusidic acid, fusidic acid] | > 43 | > 43 | > 4 | > 8 | – |
| quinupristin-dalfopristin [Quinupristin-dalfopr.] | > 21 | > 21 | 1 | > 5 | – |
| CC[C@@H]1NC(=O)[C@H](CC(C)C)NC(=O)[C@@H](Cc2ccccc2)NC(=O)[C@H](CCN)NC(=O)[C@@H](NC(=O)[C@H](CCN)NC(=O)[C@@H](N)[C@@H](C)O)CCNC(=O)[C@H]([C@@H](C)O)NC(=O)[C@H](CC)NC1=O [NAB 701] (H-T[Dab][Dab][Dab][dF]L[Abu][Abu]T; lactam 3-C) | – | – | – | – | Antibacterial activity at 4 µg (E. coli IH3080 [1]): 0 square millimeters; Antibacterial activity at 10 µg (E. coli IH3080 [1]): 0 square millimeters; Antibacterial activity in the presence of rifampin concn (µg/ml) of 0 (E. coli IH3080 [2]): 0 square millimeters; Antibacterial activity in the presence of rifampin concn (µg/ml) of 0.1 (E. coli IH3080 [2]): 0 square millimeters; Antibacterial activity in the presence of rifampin concn (µg/ml) of 1.0 (E. coli IH3080 [2]): 0 square millimeters |
| C[C@@H](O)[C@H]1C(=O)N2C(C(=O)O)=C(SCCN=CN)C[C@H]12 [imipenem] | – | – | – | – | MIC (µg/ml) at the indicated concn (µg/ml) of NAB 7061: 4 (Ac. baumannii F263): 8 µg/mL; MIC (µg/ml) at the indicated concn (µg/ml) of NAB 7061: 4 (Ac. baumannii F264): 6 µg/mL |
| CC[C@H]1OC(=O)[C@H](C)[C@@H](O[C@H]2C[C@@](C)(OC)[C@@H](O)[C@H](C)O2)[C@H](C)[C@@H](O[C@@H]2O[C@H](C)C[C@H](N(C)C)[C@H]2O)[C@](C)(O)C[C@@H](C)C(=O)[C@H](C)[C@@H](O)[C@]1(C)O [Erythromycin, erythromycin] | 32 - 48 | 32 - 42 | 24 - 48 | 21 - 43 | Sensitization factor [4]: 21-48 |
| CC[C@H](NC(=O)[C@@H](N)[C@@H](C)O)C(=O)N[C@H]1CCNC(=O)[C@H]([C@@H](C)O)NC(=O)[C@H](CCN)NC(=O)[C@H](CCN)NC(=O)[C@H](CC(C)C)NC(=O)[C@@H](Cc2ccccc2)NC(=O)[C@H](CCN)NC1=O [NAB 704] (H-T[Abu][Dab][Dab][dF]L[Dab][Dab]T; lactam 3-C) | – | – | – | – | Antibacterial activity at 4 µg (E. coli IH3080 [1]): 0 square millimeters; Antibacterial activity at 10 µg (E. coli IH3080 [1]): 0 square millimeters; Antibacterial activity in the presence of rifampin concn (µg/ml) of 0 (E. coli IH3080 [2]): 0 square millimeters; Antibacterial activity in the presence of rifampin concn (µg/ml) of 0.1 (E. coli IH3080 [2]): 0 square millimeters; Antibacterial activity in the presence of rifampin concn (µg/ml) of 1.0 (E. coli IH3080 [2]): 24 square millimeters |
| C[C@@H](O)[C@H]1C(=O)N2C(C(=O)O)=C(S[C@@H]3CN[C@H](C(=O)N(C)C)C3)[C@H](C)[C@H]12 [meropenem] | < 2 | – | – | – | MIC (µg/ml) at the indicated concn (µg/ml) of NAB 7061: 4 (Ac. baumannii F263): 6 µg/mL; MIC (µg/ml) at the indicated concn (µg/ml) of NAB 7061: 4 (Ac. baumannii F264): 4 µg/mL |
